The test system of this experiment is immortalized human sebocytes resulting from the SZ95 line. The experiment can be described thus: Lipogenesis in cultured immortalized human sebocytes (Nile Red fluorescence, neutral lipids). It counts as cell-based. Conditions: for Inhibition of lipogenesis: Effectiveness (% with respect to the control): 0.0004% in culture medium, 2 days of treatment, neutral lipids. As to the method: Various ascorbic acid compounds were tested on a model of cultured immortalized human sebocytes resulting from the SZ95 line described in Zouboulis, C. C., Seltmann, H., Neitzel, H. and Orfanos, C. E., Establishment and Characterization of an Immortalized Human Sebaceous Gland Cell Line, J. Invest. Dermatol., 113, 1011-1020 (1999).
These compounds were composed of L-ascorbic acid 2-O-α-D-glucopyranoside (hereinafter ascorbyl glucoside), of ascorbic acid, of ascorbyl palmitate and of magnesium ascorbyl phosphate.
The test consisted in measuring the amount of lipids produced by the sebocytes of the line (at confluence) in the presence or absence of active agents diluted in the culture medium. After 2 days of treatment, the adherent cells are treated with Nile Red (1 μg/ml). The content of lipids is subsequently quantified by measuring the fluorescence of the dye (two excitation/emission pairs: 485-540 nm for the neutral lipids and 540-620 nm for the nonneutral lipids). The results are given for the neutral lipids (components of the sebum).
The experiment is carried out in octuplicate (tested and control products) in a 96-well plate.

SMILES strings stand for the structures.

With `O=C1O[C@H]([C@@H](O)CO)C(O)=C1O` [Ascorbic acid, ascorbic acid], the “Inhibition of lipogenesis: Effectiveness (% with respect to the control)” value is on record as “ns”.
As for `O=C1O[C@H]([C@@H](O)CO)C([O-])=C1OP(=O)([O-])[O-].O=C1O[C@H]([C@@H](O)CO)C([O-])=C1OP(=O)([O-])[O-].[Mg+2].[Mg+2].[Mg+2]` [Magnesium ascorbyl phosphate, magnesium ascorbyl phosphate], the “Inhibition of lipogenesis: Effectiveness (% with respect to the control)” value is recorded as “ns”.
Regarding `CCCCCCCCCCCCCCCC(=O)OC[C@H](O)[C@H]1OC(=O)C(O)=C1O` [Ascorbyl palmitate, ascorbyl palmitate], the “effect on lipogenesis (in words)” value (SZ95 sebocytes) was “stimulating (and not inhibiting) effect”.
As for `O=C1O[C@H]([C@@H](O)CO)C(O)=C1O[C@H]1O[C@H](CO)[C@@H](O)[C@H](O)[C@H]1O` [Ascorbyl glucoside, L-ascorbic acid 2-O-α-D-glucopyranoside], the “effective concentration for reducing lipogenesis relative to ascorbic acid (comparable level of inhibition)” value (SZ95 sebocytes) was “ten times lower”.

For the origin of these results see patent US20060057092A1, “Cosmetic use of a composition including an ascorbic acid compound and polyamide particles” (L'OREAL, priority 2004, published 2006).
